The assay deals with T1, human GPR40 (Homo sapiens, UniProt O14842).
T1 construct: expressed in transfected cells; host or cells: CHO-K1
In words: Induction of Ca2+ (calcium flux assay) using human GPR40 expression cell line. Format: cell-based. The settings on record: read-out: EC0.5. As for the experimental part: Evaluation of the Test Compounds for Induction of Ca^2+ Using Human GPR40 Expression Cell Line
The cell line expressing human GPR40 was generated by transfection of the GPR40 expression vector into CHO-K1 cell, and used in the following calcium flux assay.
The cell line was cultured in cell-culture medium (F-12 (Invitrogen) supplemented with 10% (v/v) FBS (Fetal Bovine Serum; Invitrogen), 0.5 mg/ml Geneticin (Invitrogen) and 1% (v/v) Antibiotic-Antimycotic solution (Invitrogen)) under the condition of 5% CO2 and 37° C. For calcium flux assay, the cells were diluted with the cell-culture medium to a concentration of 5×10^5 cells/ml, and the diluted cell suspension was dispensed in amount of 100 μl/well to a 96-well transparent bottom black polystyrene cell culture plate (Corning) and then cultured for 24 hours. The following concentrations of test compounds were added to these cells, and then the changes in intracellular calcium concentration were measured by FlexStation II384 (Molecular Devices). The following solution was prepared before the measurement.
First, a buffer solution for assay was prepared for use in the manufacture of fluorescent dye solution. This buffer solution was prepared by adding 1M HEPES solution (Invitrogen) to HBSS (Hanks' Balanced Salt Solution) (Invitrogen) and then adding 1M NaOH (Nacalai Tesque) to adjust pH to 7.4. Then the fluorescent dye solution was prepared according to the manufacturer's instruction attached to Calcium 5 Assay Kit (Molecular Devices), and the final DMSO concentration was adjusted to 2%.
The fluorescent dye solution was added in an amount of 100 μl/well to supernatant of the cell culture plate cultured for 24 hours. The plate was cultured for 1 hour under the condition of 5% CO2 and 37° C. so that the fluorescent dye was inserted into the cell.
Test compounds (i.e., the compounds prepared in the Examples) dissolved in dimethyl sulfoxide (DMSO ACROS) were diluted 200-fold in the buffer solution for assay to prepare compound solutions corresponding to the respective concentrations. […] 50 μl of the prepared sample solutions was added to each well of 96-well polypropylene plates (NUNC), and thereby a compound plate was prepared. Finally, the compound plate and the cell culture plate cultured for 1 hour with the fluorescent dye were placed in FlexStation II384.
After the above pre-treatment, the change in the intracellular calcium concentration when each concentration of the test compound solutions was added at 50 μl was measured by FlexStation II^384.
Then, the relative activity values depending on the concentration of the compound were plotted using Prism 4 software (GraphPad) to calculate the EC0.5 value.
On the technique in general: Calcium assays in cells follow changes in intracellular calcium, usually with a dye or a luminescent sensor.

T1 sequence (O14842 whole entry): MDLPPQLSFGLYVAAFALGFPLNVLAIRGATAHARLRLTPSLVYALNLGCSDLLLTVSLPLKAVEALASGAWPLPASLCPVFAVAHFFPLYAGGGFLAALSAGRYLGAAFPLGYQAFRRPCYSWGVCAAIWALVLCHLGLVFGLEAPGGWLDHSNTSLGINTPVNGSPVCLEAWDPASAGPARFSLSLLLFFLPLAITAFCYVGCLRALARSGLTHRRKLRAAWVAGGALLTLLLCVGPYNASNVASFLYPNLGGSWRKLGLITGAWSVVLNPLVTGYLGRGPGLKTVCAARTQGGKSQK

Regarding `CC#C[C@@H](CC(=O)O)c1ccc(OCc2ccc3ccn(Cc4cccc(COC)c4)c3c2C)cc1` [Example 30, (S)-3-{4-[1-(3-methoxymethyl-benzyl)-7-methyl-1H-indol-6-ylmethoxy]-phenyl}-hex-4-ynoic acid], the EC50 amounted to 0.04 µM.
In the case of `CC#C[C@@H](CC(=O)O)c1ccc(OCc2cccc3c2ccn3Cc2ccccc2)cc1` [Example 31, (S)-3-[4-(1-benzyl-1H-indol-4-ylmethoxy)-phenyl]-hex-4-ynoic acid] it was 0.03 µM.
In the case of `CC#C[C@@H](CC(=O)O)c1ccc(OCc2cccc3c2ccn3-c2ccc(F)cc2C)cc1` [Example 32, (S)-3-{4-[1-(4-fluoro-2-methyl-phenyl)-1H-indol-4-ylmethoxy]-phenyl}-hex-4-ynoic acid] it was 0.04 µM; in that of `CC#C[C@@H](CC(=O)O)c1ccc(OCc2ccc3ccn(Cc4c(F)cccc4F)c3c2C)cc1` [Example 33, (S)-3-{4-[1-(2,6-difluoro-benzyl)-7-methyl-1H-indol-6-ylmethoxy]-phenyl}-hex-4-ynoic acid], 0.02 µM.
In the case of `CC#C[C@@H](CC(=O)O)c1ccc(OCc2ccc3cc(CCOC)n(Cc4ccccc4)c3c2)cc1` [Example 34, (S)-3-{4-[1-benzyl-2-(2-methoxy-ethyl)-1H-indol-6-ylmethoxy]-phenyl}-hex-4-ynoic acid] it was 0.04 µM; in that of `CC#C[C@@H](CC(=O)O)c1ccc(OCc2ccc3ccn(Cc4cccc(CS(C)(=O)=O)c4)c3c2C)cc1` [Example 35, (S)-3-{4-[1-(3-methanesulfonylmethyl-benzyl)-7-methyl-1H-indol-6-ylmethoxy]-phenyl}-hex-4-ynoic acid], 0.01 µM; in that of `CC#C[C@@H](CC(=O)O)c1ccc(OCc2ccc3ccn(Cc4ccccc4C)c3c2C)cc1` [Example 36, (S)-3-{4-[7-methyl-1-(2-methyl-benzyl)-1H-indol-6-ylmethoxy]-phenyl}-hex-4-ynoic acid], 0.06 µM.
In the case of `CC#C[C@@H](CC(=O)O)c1ccc(OCc2ccc3ccn(Cc4ccccc4F)c3c2C)cc1` [Example 37, (S)-3-{4-[1-(2-fluoro-benzyl)-7-methyl-1H-indol-6-ylmethoxy]-phenyl}-hex-4-ynoic acid], the EC50 amounted to 0.04 µM.
In the case of `CC#C[C@@H](CC(=O)O)c1ccc(OCc2ccc3ccn(Cc4ccccc4Cl)c3c2C)cc1` [Example 38, (S)-3-{4-[1-(2-chloro-benzyl)-7-methyl-1H-indol-6-ylmethoxy]-phenyl}-hex-4-ynoic acid] it was 0.09 µM; in that of `CC#C[C@@H](CC(=O)O)c1ccc(OCc2ccc3ccn(Cc4c(C)cccc4C)c3c2C)cc1` [Example 39, (S)-3-{4-[1-(2,6-dimethyl-benzyl)-7-methyl-1H-indol-6-ylmethoxy]-phenyl}-hex-4-ynoic acid], 0.2 µM.
In the case of `CC#C[C@@H](CC(=O)O)c1ccc(OCc2ccc3ccn(Cc4ccccc4)c3c2Cl)cc1` [Example 40, (S)-3-[4-(1-benzyl-7-chloro-1H-indol-6-ylmethoxy)-phenyl]-hex-4-ynoic acid] it was 0.06 µM; in that of `CC#C[C@@H](CC(=O)O)c1ccc(OCc2cc3c(ccn3Cc3ccccc3)cc2F)cc1` [Example 41, (S)-3-[4-(1-benzyl-5-fluoro-1H-indol-6-ylmethoxy)-phenyl]-hex-4-ynoic acid], 0.001 to 0.05 µM.
As to `CC#C[C@@H](CC(=O)O)c1ccc(OCc2ccc3ccn(Cc4cccc(F)c4)c3c2C)cc1` [Example 42, (S)-3-{4-[1-(3-fluoro-benzyl)-7-methyl-1H-indol-6-ylmethoxy]-phenyl}-hex-4-ynoic acid], the EC50 is 0.05 to 0.5 µM.
In the case of `CC#C[C@@H](CC(=O)O)c1ccc(OCc2ccc3ccn(Cc4cccc(C(F)(F)F)c4)c3c2C)cc1` [Example 43, (S)-3-{4-[7-methyl-1-(3-trifluoromethyl-benzyl)-1H-indol-6-ylmethoxy]-phenyl}-hex-4-ynoic acid] it was 0.05 to 0.5 µM; in that of `CC#C[C@@H](CC(=O)O)c1ccc(OCc2ccc3ccn(Cc4cnc(C)cn4)c3c2C)cc1` [Example 44, (S)-3-{4-[7-methyl-1-(5-methyl-pyrazin-2-ylmethyl)-1H-indol-6-ylmethoxy]-phenyl}-hex-4-ynoic acid], 0.001 to 0.05 µM.
In the case of `CC#C[C@@H](CC(=O)O)c1ccc(OCc2ccc3ccn(Cc4ccc(CS(C)(=O)=O)cc4)c3c2C)cc1` [Example 45, (S)-3-{4-[1-(4-methanesulfonylmethyl-benzyl)-7-methyl-1H-indol-6-ylmethoxy]-phenyl}-hex-4-ynoic acid] it was 0.001 to 0.05 µM; in that of `CC#C[C@@H](CC(=O)O)c1ccc(OCc2ccc3ccn(Cc4ccc(Cl)nc4)c3c2C)cc1` [Example 46, (S)-3-{4-[1-(6-chloro-pyridin-3-ylmethyl)-7-methyl-1H-indol-6-ylmethoxy]-phenyl}-hex-4-ynoic acid], 0.001 to 0.05 µM.
In the case of `CC#C[C@@H](CC(=O)O)c1ccc(OCc2cccc3nn(Cc4ccccc4)cc23)cc1` [Example 47, (S)-3-[4-(2-benzyl-2H-indazol-4-ylmethoxy)-phenyl]-hex-4-ynoic acid] it was 0.001 to 0.05 µM; in that of `CC#C[C@@H](CC(=O)O)c1ccc(OCc2cccc3c2cnn3Cc2ccccc2)cc1` [Example 48, (S)-3-[4-(1-benzyl-1H-indazol-4-ylmethoxy)-phenyl]-hex-4-ynoic acid], 0.001 to 0.05 µM.
`CC#C[C@@H](CC(=O)O)c1ccc(OCc2c(F)cc3ccn(Cc4ccccc4)c3c2C)cc1` [Example 49, (S)-3-[4-(1-benzyl-5-fluoro-7-methyl-1H-indol-6-ylmethoxy)-phenyl]-hex-4-ynoic acid]: the EC50 lay within 0.05 to 0.5 µM.
In the case of `CC#C[C@@H](CC(=O)O)c1ccc(OCc2ccc3ccn(Cc4ccc(F)cc4)c3c2C)cc1` [Example 50, (S)-3-{4-[1-(4-fluoro-benzyl)-7-methyl-1H-indol-6-ylmethoxy]-phenyl}-hex-4-ynoic acid] it was 0.05 to 0.5 µM.
For `CC#C[C@@H](CC(=O)O)c1ccc(OCc2ccc3ccn(Cc4ccc(F)c(F)c4)c3c2C)cc1` [Example 51, (S)-3-{4-[1-(3,4-difluoro-benzyl)-7-methyl-1H-indol-6-ylmethoxy]-phenyl}-hex-4-ynoic acid], the EC50 lay in the range of 0.05 to 0.5 µM.
In the case of `CC#C[C@@H](CC(=O)O)c1ccc(OCc2ccc3ccn(Cc4cc(F)cc(F)c4)c3c2C)cc1` [Example 52, (S)-3-{4-[1-(3,5-difluoro-benzyl)-7-methyl-1H-indol-6-ylmethoxy]-phenyl}-hex-4-ynoic acid] it was 0.05 to 0.5 µM; in that of `CC#C[C@@H](CC(=O)O)c1ccc(OCc2ccc3ccn(Cc4ccc(F)cc4F)c3c2C)cc1` [Example 53, (S)-3-{4-[1-(2,4-difluoro-benzyl)-7-methyl-1H-indol-6-ylmethoxy]-phenyl}-hex-4-ynoic acid], 0.05 to 0.5 µM; in that of `O=C(O)CCc1ccc(OCc2cccc3c2ccn3Cc2ccccc2)cc1F` [Example 54, 3-[4-(1-benzyl-1H-indol-4-ylmethoxy)-2-fluoro-phenyl]-propanoic acid], 0.05 to 0.5 µM.
In the case of `Cc1c(COc2ccc(CCC(=O)O)c(F)c2)ccc2ccn(Cc3ccccc3)c12` [Example 55, 3-[4-(1-benzyl-7-methyl-1H-indol-6-ylmethoxy)-2-fluoro-phenyl]-propanoic acid] it was 0.001 to 0.05 µM; in that of `CC#C[C@@H](CC(=O)O)c1ccc(OCc2ccc3ccn(Cc4cscn4)c3c2C)cc1` [Example 56, (S)-3-[4-(7-methyl-1-thiazol-4-ylmethyl-1H-indol-6-ylmethoxy]-phenyl}-hex-4-ynoic acid], 0.001 to 0.05 µM; in that of `CC#C[C@@H](CC(=O)O)c1ccc(OCc2ccc3ccn(Cc4csc(C)n4)c3c2C)cc1` [Example 57, (S)-3-{4-[7-methyl-1-(2-methyl-thiazol-4-ylmethyl)-1H-indol-6-ylmethoxy]-phenyl}-hex-4-ynoic acid], 0.001 to 0.05 µM.
In the case of `CC#C[C@@H](CC(=O)O)c1ccc(OCc2ccc3cn(Cc4ccccc4)nc3c2)cc1` [Example 58, (S)-3-[4-(2-benzyl-2H-indazol-6-ylmethoxy)-phenyl]-hex-4-ynoic acid] it was 0.001 to 0.05 µM; in that of `CC#C[C@@H](CC(=O)O)c1ccc(OCc2ccc3cnn(Cc4ccccc4)c3c2)cc1` [Example 59, (S)-3-[4-(1-benzyl-1H-indazol-6-ylmethoxy)-phenyl]-hex-4-ynoic acid], 0.001 to 0.05 µM.
Turning to `CC#C[C@@H](CC(=O)O)c1ccc(OCc2ccc3ccn(Cc4cnccn4)c3c2C)cc1` [Example 60, (S)-3-[4-(7-methyl-1-pyrazin-2-ylmethyl-1H-indol-6-ylmethoxy)-phenyl]-hex-4-ynoic acid], the EC50 was 0.001 to 0.05 µM.
